Some targets named below: Cytochrome P450 2D6 (Homo sapiens, UniProt P10635); Estrogen receptor beta (Homo sapiens, UniProt Q92731); Cytochrome P450 3A4 (Homo sapiens, UniProt P08684); Cytochrome P450 2C9 (Homo sapiens, UniProt P11712).
Assay [1] has as its target T1, Apoptotic protease-activating factor 1 (Homo sapiens, UniProt O14727).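 Note: caspase-3 cleavage of fluorogenic Rh110 DEVD substrate downstream of apoptosome activation.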
T1 sequence (O14727 whole entry): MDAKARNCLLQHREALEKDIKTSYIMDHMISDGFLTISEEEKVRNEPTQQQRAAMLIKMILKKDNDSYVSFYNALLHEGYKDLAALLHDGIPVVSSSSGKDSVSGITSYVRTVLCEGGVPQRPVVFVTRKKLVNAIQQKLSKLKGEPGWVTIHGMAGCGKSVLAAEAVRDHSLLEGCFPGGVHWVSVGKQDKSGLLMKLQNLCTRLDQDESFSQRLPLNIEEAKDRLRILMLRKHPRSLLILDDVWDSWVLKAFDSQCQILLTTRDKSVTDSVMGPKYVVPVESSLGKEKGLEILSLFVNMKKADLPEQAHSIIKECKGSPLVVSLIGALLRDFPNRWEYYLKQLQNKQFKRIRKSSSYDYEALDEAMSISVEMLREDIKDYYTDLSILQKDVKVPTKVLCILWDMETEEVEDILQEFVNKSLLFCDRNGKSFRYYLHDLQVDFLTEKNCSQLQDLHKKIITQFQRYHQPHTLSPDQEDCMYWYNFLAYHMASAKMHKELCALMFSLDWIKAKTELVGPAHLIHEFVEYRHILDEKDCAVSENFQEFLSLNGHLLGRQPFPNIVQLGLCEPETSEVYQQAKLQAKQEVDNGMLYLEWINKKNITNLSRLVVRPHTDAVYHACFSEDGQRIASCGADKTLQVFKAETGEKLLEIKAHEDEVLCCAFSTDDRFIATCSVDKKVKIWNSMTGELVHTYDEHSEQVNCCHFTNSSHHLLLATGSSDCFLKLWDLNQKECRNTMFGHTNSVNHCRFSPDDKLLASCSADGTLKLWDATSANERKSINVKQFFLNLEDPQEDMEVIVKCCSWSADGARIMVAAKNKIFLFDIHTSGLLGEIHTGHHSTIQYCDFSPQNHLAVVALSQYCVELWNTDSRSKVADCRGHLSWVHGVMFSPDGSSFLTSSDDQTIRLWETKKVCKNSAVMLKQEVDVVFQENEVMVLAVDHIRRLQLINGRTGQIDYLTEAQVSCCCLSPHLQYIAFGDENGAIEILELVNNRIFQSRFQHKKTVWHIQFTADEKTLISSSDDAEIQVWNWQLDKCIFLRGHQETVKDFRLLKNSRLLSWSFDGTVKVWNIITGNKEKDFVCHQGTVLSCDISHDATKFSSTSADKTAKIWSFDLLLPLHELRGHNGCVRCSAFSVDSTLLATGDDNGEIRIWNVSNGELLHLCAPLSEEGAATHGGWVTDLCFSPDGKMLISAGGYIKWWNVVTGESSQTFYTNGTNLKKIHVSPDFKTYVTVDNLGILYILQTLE
Description: SAR analysis of small molecule Activators of Apaf-1 in a Fluorescent assay. Format: functional. To be noted: read-out: EC50_Mean.

The next assay relates to H4. Kind of assay: Luminescence Cell-Based Dose Response HTS to Identify Activators of 5'UTR Stem-Loop Driven Prion Protein mRNA Translation in H4 Neuroglioblastoma Cells. [Related pubchem assays: 1829 (Project Summary), 1814 (Primary HTS)]. Format: functional. As to conditions: Homo sapiens.
Assay [2] has as its target T2, Insulin-degrading enzyme (Homo sapiens, UniProt P14735).
T2 sequence (P14735 whole entry): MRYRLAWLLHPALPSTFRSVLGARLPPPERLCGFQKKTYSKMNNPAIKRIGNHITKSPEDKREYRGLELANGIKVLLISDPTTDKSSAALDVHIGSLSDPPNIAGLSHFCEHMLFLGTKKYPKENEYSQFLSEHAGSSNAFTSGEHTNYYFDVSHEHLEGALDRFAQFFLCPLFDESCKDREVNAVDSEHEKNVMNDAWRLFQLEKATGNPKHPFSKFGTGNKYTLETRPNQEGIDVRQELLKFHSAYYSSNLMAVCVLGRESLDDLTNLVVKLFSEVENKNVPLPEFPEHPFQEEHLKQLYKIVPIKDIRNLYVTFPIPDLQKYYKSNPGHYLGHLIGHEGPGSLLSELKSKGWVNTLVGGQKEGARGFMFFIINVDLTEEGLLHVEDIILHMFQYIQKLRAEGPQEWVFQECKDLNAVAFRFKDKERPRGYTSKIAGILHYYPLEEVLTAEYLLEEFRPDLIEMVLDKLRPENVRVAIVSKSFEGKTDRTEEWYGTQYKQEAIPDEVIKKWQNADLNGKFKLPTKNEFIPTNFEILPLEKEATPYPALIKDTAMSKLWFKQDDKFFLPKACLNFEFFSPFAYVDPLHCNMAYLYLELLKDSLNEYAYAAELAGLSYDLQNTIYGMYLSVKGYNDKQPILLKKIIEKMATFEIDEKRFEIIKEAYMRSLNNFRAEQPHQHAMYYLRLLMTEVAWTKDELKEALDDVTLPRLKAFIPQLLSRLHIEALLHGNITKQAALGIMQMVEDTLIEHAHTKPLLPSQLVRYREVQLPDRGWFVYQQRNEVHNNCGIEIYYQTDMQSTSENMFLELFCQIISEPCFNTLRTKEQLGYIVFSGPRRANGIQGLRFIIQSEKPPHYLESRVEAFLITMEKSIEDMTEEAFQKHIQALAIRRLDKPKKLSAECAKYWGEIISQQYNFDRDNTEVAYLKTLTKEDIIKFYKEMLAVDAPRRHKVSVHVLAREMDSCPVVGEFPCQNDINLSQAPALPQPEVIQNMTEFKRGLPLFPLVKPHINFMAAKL
Description: activators of recombinant IDE enzyme, dose response, counter-screen for IDE activator project, biochemical, fluorescence polarization (AID 588681). For orientation: The purpose of a counterscreen is to sort out artefacts and off-target activity.

In assay [3] the test system is HEK293. Kind of assay: HEK cell cytotoxicity by LDH release, dose response, cytotoxicity control for IDE activator project, fluorescence, HEK cells (AID 588440).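 Note: cytotoxicity by LDH release measuring loss of membrane integrity.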 To be noted: Homo sapiens. Format: functional, cell-based. (In general: LDH in the medium is a marker of cell lysis.)
In assay [4] the test system is HEK293. Kind of assay: optical interference in Abeta FP readout, dose response, artefact control for IDE activator project, biochemical, fluorescence polarization (AID 588442). As to conditions: Homo sapiens. Format: functional, cell-based. (In general: Fluorescence polarisation rises when a labelled molecule tumbles more slowly, as on binding a larger partner.)
Assay [5] addresses T2, Insulin-degrading enzyme. Kind of assay: activators of endogenous IDE in HEK cells, dose response, cell-based, fluorescence polarization (AID 588439). The format is functional.
A short description of assay [6]: Luminescence Cell-Based Dose Confirmation HTS to Identify Activators of 5'UTR Stem-Loop Driven Alpha-Synuclein mRNA Translation in H4 Neuroglioblastoma Cells. [Related pubchem assays: 1829 (Project Summary), 1814 (Primary HTS)]. The format is functional.
Assay [7] can be described thus: Luminescence Cell-Based Dose Response HTS to Identify Activators of Luciferase Translation or Activity in H4 […] Cells. [Related pubchem assays: 1829 (Project Summary), 1814 (Primary HTS)]. Format: functional.
Assay [8] concerns the target T3, High affinity choline transporter 1 (Homo sapiens, UniProt Q9GZV3).
T3 sequence (Q9GZV3 whole entry): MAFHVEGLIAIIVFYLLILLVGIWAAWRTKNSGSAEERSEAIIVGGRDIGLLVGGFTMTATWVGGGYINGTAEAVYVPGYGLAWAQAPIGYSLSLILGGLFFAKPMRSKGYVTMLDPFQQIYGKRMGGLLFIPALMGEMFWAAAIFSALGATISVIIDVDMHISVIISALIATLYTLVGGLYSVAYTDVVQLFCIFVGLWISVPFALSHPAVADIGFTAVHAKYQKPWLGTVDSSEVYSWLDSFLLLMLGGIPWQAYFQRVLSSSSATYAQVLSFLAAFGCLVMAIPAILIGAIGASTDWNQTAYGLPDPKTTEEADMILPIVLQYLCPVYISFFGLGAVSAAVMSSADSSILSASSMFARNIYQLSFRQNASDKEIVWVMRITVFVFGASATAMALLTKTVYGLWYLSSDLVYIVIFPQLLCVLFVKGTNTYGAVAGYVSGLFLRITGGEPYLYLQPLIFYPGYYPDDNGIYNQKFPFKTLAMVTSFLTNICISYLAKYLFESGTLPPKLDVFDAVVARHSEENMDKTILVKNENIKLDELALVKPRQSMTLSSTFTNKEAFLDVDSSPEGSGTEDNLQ
Description: CHT inhibitors, dose response, cell-based, 10-point CRC, membrane potential dye (AID 588401).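 Note: membrane potential dye fluorescence of choline-evoked depolarization via CHT.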 Format: functional.

Assay [9] has as its target T3, High affinity choline transporter 1. Kind of assay: CHT inhibitors, dose response, cell-based, 5-point CRC, membrane potential dye (AID 504840). The format is functional.
The next assay concerns the target Aurora kinase A (Homo sapiens, UniProt O14965). The format is functional.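 Note: value from the Navigating the Kinome kinase panel profiling, panel entry STK6.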
The target of another assay is Aurora kinase B (Homo sapiens, UniProt Q96GD4). The format is functional.
Sequence of Aurora kinase B (Q96GD4 whole entry): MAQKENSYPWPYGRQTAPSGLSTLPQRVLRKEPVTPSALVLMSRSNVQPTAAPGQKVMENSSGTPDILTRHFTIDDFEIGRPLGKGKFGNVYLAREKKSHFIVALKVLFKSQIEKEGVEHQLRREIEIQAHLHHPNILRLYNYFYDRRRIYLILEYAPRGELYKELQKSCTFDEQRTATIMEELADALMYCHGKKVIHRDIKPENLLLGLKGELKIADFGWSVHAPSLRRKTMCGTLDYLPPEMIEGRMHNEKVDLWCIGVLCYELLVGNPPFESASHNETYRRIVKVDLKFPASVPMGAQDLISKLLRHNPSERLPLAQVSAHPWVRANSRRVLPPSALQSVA
Assay [10] is described as follows: inhibitors of cytokine-induced nitrite release, dose response, cell-based, Griess absorbance, INS-1E, dry powder, set 3 (AID 488870). As to conditions: Rattus norvegicus. Format: functional.
The next assay deals with INS1. Kind of assay: inhibitors of cytokine-induced nitrite release, dose response, cell-based, Griess absorbance, INS-1E, dry powder, set 2 (AID 488868). The format is functional. As to conditions: Rattus norvegicus.
Assay [11] in a line: P. falciparum Dd2 growth inhibitors, dose response, SYBR Green, cherry-picked samples (AID 1159567). Format: functional, cell-based.
The nature of assay [12]: nonselective inhibitors of cellular cAMP signaling, dose response, counter-screen for MC4R biased antagonist project, cell-based, TR-FRET cAMP detection (AID 602305).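 Note: U2OS cells stimulated with forskolin near its EC80 as the cAMP inducer; potency is for inhibition of forskolin-stimulated cAMP signaling.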 The format is functional.
In assay [13] the target is T4, Melanocortin receptor 4 (Homo sapiens, UniProt P32245). Kind of assay: MC4R antagonist potency on cAMP, dose response, cell-based, TR-FRET, biased antagonists (AID 602298).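 Note: antagonist potency against agonist-stimulated cAMP production.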 The format is functional.
T4 sequence (P32245 whole entry): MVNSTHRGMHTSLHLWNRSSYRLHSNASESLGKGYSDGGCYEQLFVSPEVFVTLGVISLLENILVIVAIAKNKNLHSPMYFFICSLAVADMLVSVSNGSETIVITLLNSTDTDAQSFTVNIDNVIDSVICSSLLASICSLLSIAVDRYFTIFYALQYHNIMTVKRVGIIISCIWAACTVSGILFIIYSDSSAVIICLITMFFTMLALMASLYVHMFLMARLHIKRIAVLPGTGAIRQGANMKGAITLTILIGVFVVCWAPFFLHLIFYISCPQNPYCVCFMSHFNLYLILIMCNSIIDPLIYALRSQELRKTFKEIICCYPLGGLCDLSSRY
Assay [14] addresses T4, Melanocortin receptor 4. The format is functional, cell-based.
Assay [15] has as its target Serine/threonine-protein kinase pim-1 (Homo sapiens, UniProt P11309). Format: functional.
Assay [16] concerns the target Receptor-type tyrosine-protein kinase FLT3 (Homo sapiens, UniProt P36888). Format: functional.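 Note: FLT3 was tested as one member of a kinome-wide kinase panel.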

Calls of active or inactive are those of the source.

Sequence of Cytochrome P450 2D6 (P10635 whole entry): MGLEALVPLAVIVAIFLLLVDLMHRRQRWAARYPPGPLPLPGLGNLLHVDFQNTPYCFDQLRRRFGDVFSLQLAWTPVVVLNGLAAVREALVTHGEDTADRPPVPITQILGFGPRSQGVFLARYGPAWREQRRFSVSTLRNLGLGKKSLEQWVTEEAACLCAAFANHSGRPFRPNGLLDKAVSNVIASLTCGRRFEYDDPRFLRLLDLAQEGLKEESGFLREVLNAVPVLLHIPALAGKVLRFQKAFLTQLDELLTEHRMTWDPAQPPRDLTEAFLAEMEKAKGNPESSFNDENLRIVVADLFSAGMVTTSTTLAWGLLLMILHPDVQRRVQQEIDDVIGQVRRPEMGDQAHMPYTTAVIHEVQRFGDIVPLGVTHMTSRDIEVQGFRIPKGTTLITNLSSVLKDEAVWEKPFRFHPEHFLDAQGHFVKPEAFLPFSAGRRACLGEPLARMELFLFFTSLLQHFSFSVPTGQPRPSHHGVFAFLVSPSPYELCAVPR
Sequence of Receptor-type tyrosine-protein kinase FLT3 (P36888 whole entry): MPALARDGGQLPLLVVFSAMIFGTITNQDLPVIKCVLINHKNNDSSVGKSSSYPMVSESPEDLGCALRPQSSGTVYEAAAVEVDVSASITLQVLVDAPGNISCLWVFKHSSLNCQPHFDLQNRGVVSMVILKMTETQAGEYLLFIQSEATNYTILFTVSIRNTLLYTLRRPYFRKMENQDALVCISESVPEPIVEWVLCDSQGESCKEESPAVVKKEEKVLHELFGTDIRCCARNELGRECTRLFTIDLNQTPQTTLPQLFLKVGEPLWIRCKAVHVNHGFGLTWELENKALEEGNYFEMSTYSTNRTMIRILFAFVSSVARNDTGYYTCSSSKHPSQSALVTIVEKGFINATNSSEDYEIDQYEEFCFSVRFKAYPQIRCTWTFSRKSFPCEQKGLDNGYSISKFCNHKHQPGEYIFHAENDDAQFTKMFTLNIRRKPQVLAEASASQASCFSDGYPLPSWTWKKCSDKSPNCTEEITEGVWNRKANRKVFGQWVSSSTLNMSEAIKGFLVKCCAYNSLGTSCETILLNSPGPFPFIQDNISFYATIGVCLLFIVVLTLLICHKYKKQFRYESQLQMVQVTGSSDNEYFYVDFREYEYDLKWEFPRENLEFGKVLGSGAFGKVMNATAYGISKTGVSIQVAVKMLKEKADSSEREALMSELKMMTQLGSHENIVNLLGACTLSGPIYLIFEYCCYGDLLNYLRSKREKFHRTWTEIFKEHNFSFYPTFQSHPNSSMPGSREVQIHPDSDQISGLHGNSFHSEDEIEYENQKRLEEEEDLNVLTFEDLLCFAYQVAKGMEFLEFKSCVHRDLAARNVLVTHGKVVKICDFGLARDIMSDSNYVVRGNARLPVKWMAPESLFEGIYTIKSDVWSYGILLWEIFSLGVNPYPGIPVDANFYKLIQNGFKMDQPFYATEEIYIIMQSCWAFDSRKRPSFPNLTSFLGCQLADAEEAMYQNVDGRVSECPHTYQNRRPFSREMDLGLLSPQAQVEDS
Sequence of Aurora kinase A (O14965 whole entry): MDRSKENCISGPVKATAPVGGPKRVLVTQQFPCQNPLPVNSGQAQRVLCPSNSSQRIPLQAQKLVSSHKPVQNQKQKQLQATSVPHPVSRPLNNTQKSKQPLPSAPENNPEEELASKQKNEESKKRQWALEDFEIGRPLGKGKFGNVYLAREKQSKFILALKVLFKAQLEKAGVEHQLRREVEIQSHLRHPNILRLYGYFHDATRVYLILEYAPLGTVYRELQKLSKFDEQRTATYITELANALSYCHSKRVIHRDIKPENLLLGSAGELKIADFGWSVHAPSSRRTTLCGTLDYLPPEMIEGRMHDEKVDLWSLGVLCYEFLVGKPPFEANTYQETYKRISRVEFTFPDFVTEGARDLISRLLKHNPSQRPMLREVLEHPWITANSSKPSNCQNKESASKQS
Sequence of Cytochrome P450 3A4 (P08684 whole entry): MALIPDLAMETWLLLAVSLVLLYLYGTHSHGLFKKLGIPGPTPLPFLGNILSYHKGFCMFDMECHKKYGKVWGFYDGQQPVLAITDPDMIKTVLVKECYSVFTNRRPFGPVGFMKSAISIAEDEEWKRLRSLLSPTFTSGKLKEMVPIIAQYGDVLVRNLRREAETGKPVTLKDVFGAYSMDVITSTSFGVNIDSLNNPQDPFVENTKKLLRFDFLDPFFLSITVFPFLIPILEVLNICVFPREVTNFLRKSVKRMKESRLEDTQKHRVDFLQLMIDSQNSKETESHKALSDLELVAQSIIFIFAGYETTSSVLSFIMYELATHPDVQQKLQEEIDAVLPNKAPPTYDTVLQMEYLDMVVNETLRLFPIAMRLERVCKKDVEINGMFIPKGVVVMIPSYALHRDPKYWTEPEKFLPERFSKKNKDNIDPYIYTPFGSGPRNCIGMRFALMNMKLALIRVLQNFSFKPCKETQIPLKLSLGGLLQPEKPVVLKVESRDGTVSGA
Sequence of Cytochrome P450 2C9 (P11712 whole entry): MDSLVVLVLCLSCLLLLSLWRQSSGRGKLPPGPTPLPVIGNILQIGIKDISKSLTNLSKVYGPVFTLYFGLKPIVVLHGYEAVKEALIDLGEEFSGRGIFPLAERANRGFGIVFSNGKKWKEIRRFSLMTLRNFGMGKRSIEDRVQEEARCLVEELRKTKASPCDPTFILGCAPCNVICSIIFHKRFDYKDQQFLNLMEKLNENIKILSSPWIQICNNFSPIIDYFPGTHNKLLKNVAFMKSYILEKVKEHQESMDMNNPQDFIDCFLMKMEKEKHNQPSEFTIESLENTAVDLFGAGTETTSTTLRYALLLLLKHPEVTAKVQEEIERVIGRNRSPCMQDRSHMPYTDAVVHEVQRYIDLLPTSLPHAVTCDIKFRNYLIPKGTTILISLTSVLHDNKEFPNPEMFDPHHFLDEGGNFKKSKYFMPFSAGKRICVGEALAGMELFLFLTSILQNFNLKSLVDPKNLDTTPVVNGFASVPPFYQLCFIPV
Sequence of Estrogen receptor beta (Q92731 whole entry): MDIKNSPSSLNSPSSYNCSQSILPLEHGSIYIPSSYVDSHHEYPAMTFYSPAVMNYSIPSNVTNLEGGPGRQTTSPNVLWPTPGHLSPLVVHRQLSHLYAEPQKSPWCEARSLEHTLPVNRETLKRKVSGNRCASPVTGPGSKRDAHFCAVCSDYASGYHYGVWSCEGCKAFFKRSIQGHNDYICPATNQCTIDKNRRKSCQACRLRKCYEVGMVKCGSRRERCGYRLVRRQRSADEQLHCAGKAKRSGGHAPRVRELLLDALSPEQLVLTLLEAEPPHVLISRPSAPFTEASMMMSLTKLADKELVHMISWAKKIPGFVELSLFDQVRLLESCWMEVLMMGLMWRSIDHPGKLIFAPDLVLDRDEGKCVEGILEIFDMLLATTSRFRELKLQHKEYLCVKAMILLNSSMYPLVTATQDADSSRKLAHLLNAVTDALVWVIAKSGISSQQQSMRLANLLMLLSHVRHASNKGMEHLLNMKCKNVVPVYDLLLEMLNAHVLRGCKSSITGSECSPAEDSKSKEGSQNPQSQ
Sequence of Serine/threonine-protein kinase pim-1 (P11309 whole entry): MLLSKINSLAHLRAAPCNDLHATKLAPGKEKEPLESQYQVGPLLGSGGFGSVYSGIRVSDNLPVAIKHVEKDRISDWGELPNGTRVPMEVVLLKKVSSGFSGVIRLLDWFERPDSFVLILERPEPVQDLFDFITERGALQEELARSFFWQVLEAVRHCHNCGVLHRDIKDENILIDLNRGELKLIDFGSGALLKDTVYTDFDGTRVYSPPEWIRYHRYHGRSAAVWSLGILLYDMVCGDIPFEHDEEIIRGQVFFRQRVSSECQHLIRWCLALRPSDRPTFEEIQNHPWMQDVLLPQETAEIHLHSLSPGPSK

Regarding `O=C(O)c1coc(-c2ccc(F)cc2)n1`, in assay [1], the EC50 was > 100 µM (inactive).
`Cc1ccc(NC(=O)C2C3C=CC4(CN(Cc5cccnc5)C(=O)C24)O3)cc1` (centres undefined): the EC50 is 14 µM (active) in the assay with H4; > 54.7 µM (inactive) on Insulin-degrading enzyme [2]; > 55.9 µM (inactive) in the assay on HEK293 [4]; > 54.7 µM (inactive) at Insulin-degrading enzyme [5]; > 120 µM (not active) in [6]; 11.9 µM (active) in assay [7]. Also, the IC50 in the assay on HEK293 [3] was > 89.2 µM (inactive).
As for `COc1ccc(C(=O)C[n+]2cccc(C)c2)cc1`, the figures for the IC50 in assay [8] and in assay [9] were 2.05 µM (active) and 2.43 µM (active), respectively.
`Cc1cc(N=Cc2ccc(O)c(O)c2)c2ccccc2n1`: the Ki was 0.0251 µM (active) at Aurora kinase A and 0.00631 µM (active) at Aurora kinase B.
As for `C[C@@H]1CN([C@@H](C)CO)C(=O)c2cccc(NC(=O)Nc3cccc4ccccc34)c2O[C@H]1CN(C)C(=O)NC1CCCCC1`, the AC50 was 37.8 µM (active) in assay [10], 24.6 µM (active) with INS1 and 5.39 µM (active) in [11].
Regarding `CCOC(=O)CCC(=O)Nc1ccc(S(=O)(=O)N2CCc3ccccc32)cc1`, the IC50 (in assay [12]; at Melanocortin receptor 4 [13]) was > 64.6 µM (inactive) in each case.
For the compound `COc1ccccc1S(=O)(=O)N(C)C[C@@H]1Oc2c(NC(=O)Nc3cccc4ccccc34)cccc2C(=O)N([C@@H](C)CO)C[C@H]1C`, the AC50 is 45.1 µM (active) in assay [10] and 47.2 µM (active) in the assay on INS1.
Regarding `NC(=O)Cn1cc(/C=N\NS(=O)(=O)c2ccc(Cl)cc2)c2ccccc21`, the EC50 on Insulin-degrading enzyme [2] is > 54.7 µM (inactive); in the assay with HEK293 [4], > 55.9 µM (inactive); at Insulin-degrading enzyme [5], > 54.7 µM (inactive). Moreover, in the assay with HEK293 [3], the IC50 is > 89.1 µM (inactive).
Take `Cc1noc(C)c1COC(=O)c1cnc(Cl)c(Cl)c1`: the values for the IC50 in assay [8] and in assay [9] were 5.01 µM (active) and 10 µM (active), respectively.
Take `CCOc1cc(NC(=O)c2cccs2)c(OCC)cc1NC(=O)c1ccco1`: the values for the AC50 on Cytochrome P450 2D6, on Cytochrome P450 3A4 and at Cytochrome P450 2C9 were 0.708 µM (inconclusive), 0.178 µM (inconclusive) and 0.0355 µM (inconclusive), respectively. At Melanocortin receptor 4 [14], the EC50 is > 89.1 µM (inactive). Further, at Estrogen receptor beta, the half-inhibitory concentration (IC50) was > 50 µM (not active).
As for `CCOC(=O)c1cc(C)nc(S(C)(=O)=O)c1C#N`, the IC50 (in assay [12]; at Melanocortin receptor 4 [13]) was > 64.6 µM (inactive) throughout.
As for `c1ccc(C2Cc3cn[nH]c3C2)cc1` (centres undefined), the figures for the Ki in [15] and in assay [16] were 79.4 µM (active) and 15.8 µM (active), respectively.

One may read the IC50 as the concentration needed to halve the response being measured. As a reminder, the Ki is a measure of affinity in units of concentration, obtained from inhibition or displacement. The AC50 is the midpoint of the concentration-response curve, whichever way the signal moves.

These data come from ChEMBL document CHEMBL1201862, “PubChem BioAssay data set” (2004).
